Assay results from patent US20120190868A1, “SUBSTITUTED BENZOCHALCOGENOACENE COMPOUND, THIN FILM COMPRISING THE COMPOUND, AND ORGANIC SEMICONDUCTOR DEVICE INCLUDING THE THIN FILM” (NATIONAL UNIVERSITY CORPORATION NAGOYA UNIVERSITY, priority 2009, published 2012).

Assay: Solubility of the compound in a solvent (preparation of solution composition)
Assay type: physicochemical
Method: The solution composition containing the compound [5] in 0.5 wt % concentration was prepared by dissolving the compound [5] manufactured in Example 1 in tetrahydrofuran.
On the substrate obtained by a similar procedure to Example 8, a 0.5 wt % dichlorobenzene solution of the compound [14] heated at 100° C. was applied by the spin coating method and dried on a hot plate of 120° C. for 30 minutes to result in the formation of a thin film containing the compound and having a thickness of about 30 nm.

Structure (SMILES)	concentration of solution of the compound (solubility in a solvent) (dichlorobenzene, heated at 100° C.) [wt %]	concentration of solution composition prepared by dissolving the compound (solubility in a solvent) (tetrahydrofuran) [wt %]
CCCCCCCCCCCCc1ccc2c(c1)sc1c2sc2c3ccc(CCCCCCCCCCCC)cc3sc21 [[14]]	0.5	
CCCCCCc1ccc2c(c1)sc1c2sc2c3ccc(CCCCCC)cc3sc21 [[5]]		0.5
